In patent EP0840609B1, “USE OF UNSUBSTITUTED AND SUBSTITUTED N-(PYRROL-1-YL)PYRIDINAMINES AS ANTICONVULSANT AGENTS” (Aventis Pharmaceuticals Inc., priority 1995, dated 1997):
Where a name gives a salt, the structure may show the parent alone.

Tested on: brain membrane sodium channels
Assay: not given
Conditions: vesicular preparation of male Wistar rat cortices, 25 nM [^3H]batrachotoxin, 60 minutes at 25°C; read-out: Inhibition of [^3H]Batrachotoxin Binding IC50

| SMILES | IC50 |
| --- | --- |
| Cc1cn(Nc2ccncc2F)c2ccccc12 [N-(3-Fluoro-4-pyridinyl)-3-methyl-1H-indol-1-amine] | 42 µM |
| c1ccc(Nn2ccc3ccccc32)nc1 [N-(2-pyridinyl)-1H-indol-1-amine, N-(2-Pyridinyl)-1H-indol-1-amine] | 12 µM |
| CC(C)CN(c1ccncc1)n1ccc2ccccc21 [N-(2-Methylpropyl)-N-(4-pyridinyl)-1H-indol-1-amine maleate] | 9 µM |
| Cc1cn(Nc2ccncc2)c2ccccc12.O=C(O)C(=O)O [3-Methyl-N-(4-pyridinyl)-1H-indol-1-amine oxalate] | 11 µM |
| CCCN(c1ccncc1)n1cc(CN)c2ccccc21 [3-Aminomethyl-N-propyl-N-(4-pyridinyl)-1H-indol-1-amine dihydrochloride] | 10 µM |
| CCCN(c1ccncc1Cl)n1cc(C)c2ccccc21 [N-(3-Chloro-4-pyridinyl)-3-methyl-N-propyl-1H-indol-1-amine] | 44 µM |
| CCCN(c1ccncc1F)n1cc(C)c2ccccc21 [N-(3-Fluoro-4-pyridinyl)-N-propyl-3-methyl-1H-indol-1-amine hydrochloride] | 31 µM |
| CCCN(c1ccncc1)n1ccc2cc(Br)ccc21 [5-Bromo-N-propyl-N-(4-pyridinyl)-1H-indol-1-amine maleate] | 14 µM |
| NCCc1cn(Nc2ccncc2)c2ccccc12 [3-Aminoethyl-N-(4-pyridinyl)-1H-indol-1-amine dimaleate] | 44 µM |
| c1ccc2c(c1)ccn2Nc1ccncc1 [N-(4-pyridinyl)-1H-indol-1-amine, N-(4-Pyridinyl)-1H-indol-1-amine maleate] | 18 µM |
| CC(C)N(c1ccncc1)n1ccc2ccccc21 [N-(1-Methylethyl)-N-(4-pyridinyl)-1H-indol-1-amine maleate] | 9 µM |
| CCCN(c1ccncc1)n1cc(C)c2cc(O)ccc21 [3-Methyl-1-(propyl-4-pyridinylamino)-1H-indol-5-ol hemi-oxalate] | 21 µM |
| Cc1cn(Nc2ccncc2)c2ccc(O)cc12 [3-Methyl-1-(4-pyridinylamino)-1H-indol-5-ol] | 20 µM |
| c1ccn(Nc2ccncc2)c1 [N-(1H-pyrrol-1-yl)-4-pyridinamine, N-(1H-Pyrrol-1-yl)-4-pyridinamine] | 40 µM |
| Brc1ccc2c(ccn2Nc2ccncc2)c1 [5-bromo-N-(4-pyridinyl)-1H-indol-1-amine, 5-Bromo-N-(4-pyridinyl)-1H-indol-1-amine maleate] | 23 µM |
| Clc1cn(Nc2ccncc2)c2ccccc12 [3-Chloro-N-(4-pyridinyl)-1H-indol-1-amine salicylate] | 11 µM |
| CCc1cn(N(C)c2ccncc2)c2ccccc12 [3-Ethyl-N-methyl-N-(4-pyridinyl)-1H-indol-1-amine hydrochloride] | 12 µM |
| c1cncc(Nn2ccc3ccccc32)c1 [N-(3-pyridinyl)-1H-indol-1-amine, N-(3-Pyridinyl)-1H-indol-1-amine] | 12 µM |
| NC(=O)N1c2ccccc2C=Cc2ccccc21 [Carbamazepine, reference compound] | 94 µM |
| Cc1cn(Nc2ccncc2Cl)c2ccccc12 [N-(3-Chloro-4-pyridinyl)-3-methyl-1H-indol-1-amine hydrochloride] | 29 µM |
| Cc1cnccc1Nn1ccc2ccccc21 [N-(3-Methyl-4-pyridinyl)-1H-indol-1-amine] | 21 µM |
| CCCN(c1ccncc1F)n1cccc1 [3-Fluoro-N-propyl-N-(1H-pvrrol-1-yl)-4-pyridinamine hydrochloride] | 46 µM |
| Nc1cnccc1Nn1ccc2ccccc21 [4-[N-(1H-indol-1-yl)]-3,4-pyridinamine, 4-[N-(1H-indol-1-yl)]-3,4-pyridinamine hemihydrate] | 22 µM |
| CCCN(c1ccncc1F)n1ccc2cc(O)ccc21 [1-[Propyl-4-(3-fluoropyridinyl)amino]-1H-indol-5-ol hydrochloride] | 70 µM |
| CCN(c1ccncc1)n1cccc1 [N-Ethyl-N-(1H-pyrrol-1-yl)-4-pyridinamine hydrochloride] | 86 µM |
| CCCN(c1ccncc1)n1cccc1 [N-Propyl-N-(1H-pyrrol-1-yl)-4-pyridinamine hydrochloride] | 66 µM |
| CCCN(c1ccncc1)n1ccc2ccccc21.Cl [N-Propyl-N-(4-pyridinyl)-1H-indol-1-amine hydrochloride] | 5 µM |
| Clc1cnccc1Nn1ccc2ccccc21 [N-(3-Chloro-4-pyridinyl)-1H-indol-1-amine hydrochloride] | 14 µM |
| CCCN(c1ccncc1Cl)n1ccc2ccccc21 [N-(3-Chloro-4-pyridinyl)-N-propyl-1H-indol-1-amine hydrochloride] | 32 µM |
| CCCN(c1ccncc1)n1cc(Cl)c2ccccc21 [3-Chloro-N-propyl-N-(4-pyridinyl)-1H-1-amine hydrochloride] | 10 µM |

Tested on: Male CD-1 mice
Assay: Supramaximal electroshock in mice (block of tonic seizure / extensor tonus)
Type: in vivo
Conditions: Mus musculus, ip, @ 30 mpk, intraperitoneally, read-out: Inhibition of supramaximal electroshock (protection, normalized percent inhibition)
Protocol: This procedure is used as to predict anticonvulsant activity of a test compound in vivo by its ability to block a full tonic seizure induced by a supramaximal electroshock stimulation as an indication of efficacy in preventing grand mal seizures.
Male CD-1 mice (Charles River) weighing 18-30 grams were housed in accordance with the "NIH Guide to Care and Use of Laboratory Animals" (National Institutes of Health Care Publication 85-23, revised 1985) with a 12 hour light/dark cycle and free access to food and water. On the day of testing, animals are brought to the laboratory and randomly assigned to groups of six for the time course experiments and to test groups of ten for the dose-response experiments.
The apparatus used for the test was the Wahlquist Electroshock Stimulator (Model H), which has a power source of 120 volts ac. A current of 15.5 mA lasting for 300 msec was delivered by placing the terminals of the stimulator across the eyes of the animal. This stimulus results in a tonic seizure, defined as a brief period of hindlimb flexion followed by a prolonged period of hindlimb extension. […] Protection is calculated as a normalized percent inhibition relative to a vehicle treated control group.
A time course is performed to determine the peak time of drug action and then a dose response performed at the peak time to determine drug potency. Mice are dosed in a randomized fashion using a total of 4 dose groups and one vehicle control group. The ED50 value and 95% confidence limits are calculated by a computerized Litchfield and Wilcoxon analysis.
Drugs are prepared dissolved in distilled water and, if insoluble a drop of surfactant is added.. Drugs are routinely administered intraperitoneally for this test and given in a dosage volume of 10 ml/kg.

| SMILES | inhibition at 30 mg/kg |
| --- | --- |
| CCCN(c1ccncc1F)n1cc(C)c2ccccc21 [N-(3-Fluoro-4-pyridinyl)-N-propyl-3-methyl-1H-indol-1-amine hydrochloride] | 50% |

Same assay, conditions: Mus musculus, ip, @ 60 mpk, intraperitoneally, read-out: Inhibition of supramaximal electroshock (protection, normalized percent inhibition)

| SMILES | inhibition at 60 mg/kg |
| --- | --- |
| CCCN(c1ccncc1F)n1cc(C)c2ccccc21 [N-(3-Fluoro-4-pyridinyl)-N-propyl-3-methyl-1H-indol-1-amine hydrochloride] | 50% |

Same assay, conditions: Mus musculus, ip, intraperitoneally, dose response at peak time, read-out: INHIBITION OF SUPRAMAXIMAL ELECTROSHOCK IN MICE ED50

| SMILES | ED50 |
| --- | --- |
| Cc1cn(Nc2ccncc2)c2ccccc12.O=C(O)C(=O)O [3-Methyl-N-(4-pyridinyl)-1H-indol-1-amine oxalate] | 13 mg/kg |
| CCCN(c1ccncc1)n1c(C)ccc1C.O=C(O)/C=C\C(=O)O [N-(2,5-Dimethyl-1H-pyrrol-1-yl)-N-(n-propyl)-4-pyridinamine maleate] | 50.1 mg/kg |
| NC(=O)N1c2ccccc2C=Cc2ccccc21 [Carbamazepine, reference compound] | 18.6 mg/kg |
| CCCN(c1ccncc1)n1ccc2ccccc21.Cl [N-Propyl-N-(4-pyridinyl)-1H-indol-1-amine hydrochloride] | 14.2 mg/kg |
| O=C1NC(=O)C(c2ccccc2)(c2ccccc2)N1 [Diphenylhydantoin, reference compound] | 9.4 mg/kg |

Same assay, conditions: intraperitoneally, dose response at peak time

| SMILES | INHIBITION OF SUPRAMAXIMAL ELECTROSHOCK IN MICE ED50 |
| --- | --- |
| CCCN(c1ccncc1)n1cc(C)c2ccccc21.O=C(O)/C=C\C(=O)O [3-Methyl-N-propyl-N-(4-pvridinyl)-1H-indol-1-amine maleate] | 14.4 mg/kg |
